Test results from article PMC10587159, “Biosynthesis and engineering of the nonribosomal peptides with a C-terminal putrescine” (Nature Communications, 2023).
Entries after “also recorded” stand apart in the source; their conditions may differ. Residues, ends and D or L forms follow the SMILES beside them. *: point of attachment. Octanoyl = CCCCCCCC(=O)*; NH(CH2)4NH2 = NCCCCN*

What was measured:
RAW 264.7 cells = experiment: NO production in LPS-induced RAW264.7 cells (Griess method), anti-inflammatory; assay type: cell-based; details: compounds 0-80 μM for 30 min, then co-treatment with LPS 24 h; Griess reagents, OD 540 nm
Description: The two human acute lymphoblastic leukemia cells K562 and Kasumi, two human breast adenocarcinoma cells MCF7 and MDA-MB-231, human hepatoma cell HepG-2, human lung adenocarcinoma cell A549, human gastric cancer cell SGC-7901, human colon cancer cell HCT-116, human ovarian cancer cell line SKOV3, or human lung epithelial normal cell 2B were obtained from Beyotime Biotechnology and utilized to test the cytotoxicity of compounds by MTT assays as previous study. The anti-inflammatory effect of the compounds was detected by the influence on the increase in the level of nitric oxide caused by lipopolysaccharide (LPS) based on the classic Griess method. RAW 264.7 cells (Shanghai Institutes for Biological Science) were seeded in 96-well plates and incubated for 24 h. Then, cells were treated with compounds 29, 29a, 31, and 31a (0-80 μM) for 30 min, followed by co-treatment with LPS ([…]) for another 24 h. The Nitric Oxide assay kit with Griess reagents (Beyotime, Lot: S0021, Shanghai, China) was used to examine cellular supernatant nitrite accumulation, which represents cellular NO levels. The OD value of 540 nm absorbance was detected with a microplate reader. […]
We measured NO production to test the anti-inflammatory activity of compounds […]
cellular NO levels. The OD value of 540 nm absorbance was detected with a microplate […]

[1] = system: human lung adenocarcinoma cell A549; experiment: MTT cytotoxicity assay, A549; assay type: cell-based; details: 24 h
Method in brief: (§1)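 Cytotoxicity in Kasumi, HepG-2, SGC-7901 and normal lung epithelial 2B cells, among other human tumour lines, was measured by MTT assay.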

[2] = system: human lung epithelial normal cell 2B; experiment: cells; assay type: cell-based; details: 24 h
Method in brief: (§2)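 Cells were exposed to compounds and viability was then quantified by MTT assay, per an earlier published method. Panel included leukemia Kasumi, hepatoma HepG-2, gastric SGC-7901 and normal lung epithelial 2B cells.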

[3] = system: human breast adenocarcinoma cells MDA-MB-231; experiment: cells; assay type: cell-based; details: 24 h
Method in brief: as §1

[4] = system: human hepatoma cell HepG-2; experiment: cells; assay type: cell-based; details: 24 h
Method in brief: as §2

[5] = system: human ovarian cancer cell line SKOV3; experiment: cells; assay type: cell-based; details: 24 h
Method in brief: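 Viability by MTT staining was the end-point for compound cytotoxicity in human tumour lines and the non-malignant 2B lung epithelial line.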

tumor lines = experiment: MTT cytotoxicity assay, statements on the whole panel; assay type: cell-based, human
Method in brief: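 MTT read-out of viability; cancer lines plus normal 2B epithelial cells. Lines authenticated by morphology, gene/protein expression.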

IC50 [3]: 168.9 ± 1.05 µM | IC50 [4]: 136.2 ± 0.15 µM | IC50 [5]: 241.4 ± 0.07 µM
SMILES: CCCCCCCC(=O)N[C@H](C(=O)N[C@@H](Cc1ccccc1)C(=O)N[C@@H](CCC(=O)O)C(=O)N[C@H](C(=O)N[C@@H](C)C(=O)NCCCCN)[C@@H](C)CC)C(C)C [Compound 31] (Octanoyl-VFEIA-{NH(CH2)4NH2}; N-terminus assumed)
anti-inflammatory activity (NO production in LPS-induced RAW264.7 cells) in words (RAW 264.7 cells): higher anti-inflammatory and antitumor activities than 29a and 31a; also recorded: moderate; also recorded: suppressed moderately the release | IC50 [1]: 198.3 ± 1.25 µM | IC50 [2]: 42.6 ± 1.25 µM | IC50 (tumor lines; 24 h): > 40 µM | cytotoxic / antitumor activity in words (tumor lines; MTT assay, panel of tumor cell lines): higher anti-inflammatory and antitumor activities than 29a and 31a
